Measured values as given in patent US20090307791A1, “CALCIUM-ACTIVATED CHLORIDE CHANNEL AND METHODS OF USE THEREOF” (priority 2008, published 2009).

What was measured:
CaCC = experiment: Ca2+ evoked current in A23187 treated Xenopus oocytes; type: cell-based; conditions: Ca2+ 5 mM
Description: (§1) For experiments involving TMEM16 constructs, capped cRNA was in vitro transcribed from linearized plasmids using the mMessage mMachine kit (Ambion). Female Axolotls and Xenopus laevis were purchased from the Ambystoma Genetic Stock Center and Nasco respectively. Oocytes from these animals were defoliculated by treatment with collagenase prepared as described. Usually 5 ng of cRNA (50 ng for mRNA) was injected into defolliculated oocytes. Oocytes were kept at 17° C. in ND96 solution (96 mM NaCl, 2 mM KCl, 1.8 mM CaCl2, 1 mM MgCl2, 10 mM HEPES [pH 7.4]). Two-electrode voltage-clamp measurements were performed at room temperature 2-4 days after injection using a GeneClamp500 amplifier (Axon Instruments) and pClamp 8.0 software (Axon Instruments). Oocytes used in photolysis experiments were injected with […] of 100 μM caged inositol trisphosphate [myo-inositol 1,4,5-trisphosphate, P4(5)-1-(2-nitrophenyl)ethyl ester] (Molecular Probes) at least 1 h before recording, and kept in dark until usage. For flash photolysis light derived from a mercury arc lamp was guided by a fused silica fiber (Oriel) to the top of oocytes in the recording chamber. Flash time was controlled via electronic shutter.
FIGS. 2A-f. Carbachol and Ca^2+ evoked current responses in different oocytes. […]

xTMEM16A = experiment: NFA inhibition of IP3-induced CaCC currents, two electrode voltage clamp, Axolotl oocytes injected with xTMEM16A cRNA; type: cell-based; conditions: Axolotl oocytes expressing xTMEM16A, 30 μM NFA, long lasting current
Description: as §1, with “(Molecular Probes) at least 1 h before recording, and kept in dark until usage. For flash photolysis light derived from a mercury arc lamp was guided by a fused silica fiber (Oriel) to the top of oocytes in the recording chamber. Flash time was controlled via electronic shutter.” left out
(§2) Currents were usually recorded in Ca^2+ free ND96 solution (96 mM NaCl, 2 mM KCl, 3 mM MgCl2, 10 mM HEPES [pH 7.4]). […] The permeability ratios were calculated from shifts in reversal potential ΔErev using the Goldman-Hodgkin-Katz Equation in the form: PX/PCl=(γ·[Cl^−](1)−[Cl^−](2))/[X^−](2) were [Cl^−](1), [Cl^−](2) and [X^−](2) are the external Cl^− and X^− concentration before and after solution exchange. […]

endogenous CaCCs = experiment: NFA inhibition of IP3-induced Ca2+ activated Cl- currents, two electrode voltage clamp, Xenopus oocytes; type: cell-based, Xenopus laevis
Description: as §1
as §2, with “7.4]). Solutions for Cl^−/gluconate replacement experiments were prepared from appropriate mixtures of solutions containing high Cl^− (95 mM NaCl, 1 mM KCl, 2 mM MgCl2, 10 mM HEPES [pH 7.4]) and solutions containing high gluconate (95 mM NaGluconate, 1 mM KCl, 2 mM MgCl2, 10 mM HEPES [pH 7.4]). In other permeability experiments solutions containing 90 NaX, 2 KCl, 4 MgCl, 10 mM HEPES [pH 7.4] with X=Cl^−, Br^−, I^− or SCN^− were used.” for “7.4]).”

Row | SMILES | CaCC activation by A23187 then high calcium solution (CaCC) | effect on amplitude of a CaCC current of long duration (xTMEM16A) | effect on decay of the residual CaCC current (endogenous CaCCs; 30 μM NFA) | effect on IP3-induced CaCC current amplitude (endogenous CaCCs; 30 μM NFA, 1 min perfusion, ND96) | reversibility after removal of NFA (endogenous CaCCs; after 5 min ND96 wash)
1 | CNc1ccc2oc(C[C@H]3O[C@@]4(CC[C@H]3C)O[C@H]([C@H](C)C(=O)c3ccc[nH]3)[C@H](C)C[C@H]4C)nc2c1C(=O)O [A23187] | resulted in CaCC activation |  |  |  | 
2 | O=C(O)c1cccnc1Nc1cccc(C(F)(F)F)c1 [NFA, niflumic acid] |  | barely reduced in amplitude | slowed the decay of the residual current | reduced the IP3-induced CaCC current | restored both the amplitude and the kinetics of the CaCC current
